Test systems include EKVX NSCLC; HCC-2998 colon; HCT-116 colon; HOP-62 NSCLC; HT29 colon; M14 melanoma; SF-268 CNS; SK-OV-3 ovarian; SW-620 colon; MDA-MB-435.
Experiment in all cases: inhibition of tumour cell growth, NCI panel, 48 h

Molecules are shown by their SMILES.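 Results reflect a 48-hour exposure of cells in 96-well plates to compound at five concentrations. GI50: concentration for 50% inhibition of growth. At the TGI there is no net growth.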 Bounds are passed on as bounds.

For the molecule `C#C[C@H]1CCCCCC1O` (some centres undefined), the TGI in the assay with EKVX NSCLC, with HCC-2998 colon, in the assay with HCT-116 colon, in the assay with HOP-62 NSCLC, in the assay with HT29 colon and with M14 melanoma was > 100 µM throughout. The TGI in the assay with SF-268 CNS is > 100 µM; with SK-OV-3 ovarian it was > 100 µM; in the assay with SW-620 colon, 69.8 µM.

With `Cc1cc(C)nc(NS(=O)(=O)c2ccc(NC(=O)c3cccn4c(=O)c5ccccc5nc34)cc2)n1`, the TGI with EKVX NSCLC was 99.7 µM; with HCC-2998 colon, > 100 µM; in the assay with HCT-116 colon it was > 100 µM; in the assay on HOP-62 NSCLC, > 100 µM; in the assay with HT29 colon, > 100 µM; in the assay with M14 melanoma it was > 100 µM. The TGI with SF-268 CNS and in the assay with SW-620 colon was > 100 µM in each case.

For the molecule `COc1ccc(Oc2ccccc2NC(=O)CNC(=O)c2cccc3ccccc23)cc1`, the GI50 is 1370 nM in the assay on EKVX NSCLC; 1410 nM in the assay with HCC-2998 colon; 610 nM in the assay with HCT-116 colon; 717 nM with HOP-62 NSCLC; 576 nM with HT29 colon; 545 nM with M14 melanoma. In addition, the GI50 in the assay on SF-268 CNS was 2030 nM; in the assay on SK-OV-3 ovarian it was 1020 nM; in the assay with SW-620 colon it was 678 nM. Further, the TGI in the assay with EKVX NSCLC was > 25 µM; with HCC-2998 colon it was > 25 µM; with HCT-116 colon, > 25 µM; in the assay with HOP-62 NSCLC, > 25 µM; in the assay on HT29 colon it was 19.4 µM; in the assay on M14 melanoma, > 25 µM. Moreover, the TGI in the assay on SF-268 CNS, in the assay with SK-OV-3 ovarian and in the assay on SW-620 colon was > 25 µM in each case.

As for `Nc1ccc(C(=O)N/C(=C\c2cccc([N+](=O)[O-])c2)c2nc3ccc(Cl)cc3[nH]2)cc1`, the TGI with EKVX NSCLC, in the assay with HCC-2998 colon, with HT29 colon, in the assay with M14 melanoma, with SF-268 CNS and in the assay with SK-OV-3 ovarian was > 100 µM each time. Also, the TGI in the assay on SW-620 colon is > 100 µM.

Turning to `Cc1nc2c(sc(=S)n2-c2ccccc2)c2nc3ccccc3n12`, the TGI in the assay on EKVX NSCLC, in the assay with HCC-2998 colon, in the assay on HOP-62 NSCLC, in the assay with HT29 colon, in the assay on M14 melanoma and in the assay with SF-268 CNS was > 100 µM in each case. Further, the TGI in the assay on SK-OV-3 ovarian was > 100 µM.

In the case of `NC(=O)C12CC3CC(CC(Br)(C3)C1)C2`, the TGI in the assay with EKVX NSCLC, in the assay with HCC-2998 colon, with HCT-116 colon, with HOP-62 NSCLC, in the assay with HT29 colon and with M14 melanoma was > 100 µM each time. For the same molecule, the TGI in the assay with SF-268 CNS, with SK-OV-3 ovarian and in the assay on SW-620 colon was > 100 µM each time.

In the case of `Cc1ccc(NC(=O)CC2SC(N)=NC2=O)cc1C` (centres undefined), the TGI in the assay with HCC-2998 colon, with HCT-116 colon, in the assay with HOP-62 NSCLC, with HT29 colon, in the assay with M14 melanoma and with SF-268 CNS was > 100 µM throughout. The TGI in the assay on SK-OV-3 ovarian and with SW-620 colon was > 100 µM each time.

Consider `COc1ccc(-c2ccc(/C=N/n3c(COc4ccccc4Cl)n[nH]c3=S)o2)c([N+](=O)[O-])c1`, for which the GI50 is 17300 nM in the assay with HCT-116 colon; 26700 nM in the assay with HOP-62 NSCLC; 41100 nM in the assay on HT29 colon; 26600 nM in the assay with M14 melanoma; 20 µM in the assay on MDA-MB-435; 32300 nM in the assay on SF-268 CNS. In addition, the GI50 with SK-OV-3 ovarian was 35400 nM. Also, the TGI with HCT-116 colon was 33.8 µM; with HOP-62 NSCLC it was 69.3 µM; in the assay with HT29 colon it was > 100 µM; in the assay on M14 melanoma it was 79.1 µM; in the assay with MDA-MB-435 it was 46.6 µM; in the assay with SF-268 CNS, 91.7 µM. In addition, the TGI in the assay with SK-OV-3 ovarian is > 100 µM.

On to `O=C(CCc1nc(=S)[nH][nH]1)Nc1cccc(C(F)(F)F)c1`, for which the TGI with EKVX NSCLC, with HCC-2998 colon, in the assay on HCT-116 colon, in the assay on HOP-62 NSCLC, in the assay on HT29 colon and in the assay with M14 melanoma was > 100 µM in each case. In addition, the values for the TGI in the assay with SF-268 CNS, in the assay with SK-OV-3 ovarian and with SW-620 colon were > 100 µM, > 100 µM and 28.5 µM, respectively.

With `CCC[CH2][Sn]([CH2]CCC)([O]C(=O)/C=C/c1ccccc1F)[O]C(=O)/C=C/c1ccccc1F`, the GI50 with EKVX NSCLC was 1430 nM; in the assay on HCC-2998 colon, 1060 nM; in the assay with HCT-116 colon, 1050 nM; in the assay with HOP-62 NSCLC, 2120 nM; in the assay on HT29 colon, 1580 nM; in the assay on M14 melanoma, 873 nM. Further, the GI50 was 526 nM in the assay with SF-268 CNS, 2040 nM in the assay on SK-OV-3 ovarian and 205 nM with SW-620 colon. Moreover, the TGI with EKVX NSCLC was 2.79 µM; with HCC-2998 colon, 2.29 µM; in the assay on HCT-116 colon, 2.52 µM; in the assay on HOP-62 NSCLC, 4.71 µM; in the assay with HT29 colon it was 3.07 µM; in the assay with M14 melanoma, 2.22 µM. The TGI was 1.84 µM with SF-268 CNS, 4.48 µM with SK-OV-3 ovarian and 0.479 µM with SW-620 colon.

With `COCCOCOC(C)(C)[C@H](CCOC(C)=O)O[Si](c1ccccc1)(c1ccccc1)C(C)(C)C`, the TGI is > 100 µM in the assay with EKVX NSCLC; 26 µM in the assay with HCC-2998 colon; > 100 µM in the assay on HCT-116 colon; 66.7 µM with HOP-62 NSCLC; 28.5 µM with HT29 colon; 49.4 µM in the assay on M14 melanoma. In addition, the TGI in the assay on SF-268 CNS, with SK-OV-3 ovarian and in the assay on SW-620 colon was > 100 µM each time.

Turning to `COc1ccc(Cc2nc3ccccc3s2)cc1OC`, the TGI was 37.1 µM in the assay with EKVX NSCLC; 49 µM in the assay on HCC-2998 colon; 29.2 µM in the assay with HCT-116 colon; 93.5 µM in the assay with HOP-62 NSCLC; 35.8 µM with HT29 colon; 31.6 µM in the assay on M14 melanoma. Besides, the TGI with SF-268 CNS stood at 29.5 µM; with SK-OV-3 ovarian, 43.5 µM; in the assay on SW-620 colon, 32.7 µM.

Regarding `Nc1ncnc2c1nnn2C1C=C(CO)C(O)C1O` (centres undefined), the TGI with EKVX NSCLC was > 100 µM; in the assay on HCC-2998 colon, > 100 µM; with HCT-116 colon it was > 53.3 µM; in the assay with HOP-62 NSCLC, > 100 µM; in the assay on HT29 colon, > 100 µM; with M14 melanoma, > 100 µM. For the same molecule, the TGI in the assay on SF-268 CNS was > 100 µM; in the assay with SK-OV-3 ovarian, > 100 µM; in the assay on SW-620 colon, > 63.1 µM.

For the origin of these results see PubChem BioAssay (NCI).
